Among the data in publication PMC8286840, “Identifying SARS-CoV-2 antiviral compounds by screening for small molecule inhibitors of Nsp3 papain-like protease” (Biochemical Journal, 2021) are remaining activity values, retold here.

Assay [1] addresses T1, SARS-CoV-2 PLpro (nsp3 1564–1878) (Severe acute respiratory syndrome coronavirus 2, UniProt P0DTD1). The experiment in a line: biochemical. The arrangement: FRET-quenched peptide (Pro3) cleavage by PLpro, 10 min pre-incubation, slope over 20 min, normalised to no-compound control. The settings on record: low concentration screen, read-out: % of control remaining.
For assay [2], the target named is T1, SARS-CoV-2 PLpro (nsp3 1564–1878). Kind of assay: biochemical. Also on record: FRET-quenched peptide (Pro3) cleavage by PLpro, 10 min pre-incubation, slope over 20 min, normalised to no-compound control. The settings on record: high concentration screen, read-out: % of control remaining.

Counter-ions that a name gives are not always drawn. Like-named read-outs stand apart in the source and are kept apart here.

For `O=C(NC1CCN(CCCCC2(C(=O)NCC(F)(F)F)c3ccccc3-c3ccccc32)CC1)c1ccccc1-c1ccc(C(F)(F)F)cc1` [Lomitapide], the remaining activity at 1.25 µM in assay [1] (Well no.=8672) came to 93.8%. In addition, in assay [2] (Well no.=8672), the remaining activity at 3.75 µM came to 93.5%.
With `COC(=O)c1ccc(O)c2nc3c(C=O)c(O)cc(O)c3nc12` [Lomofungin], the remaining activity at 1.25 µM in assay [1] (Well no.=1551) is 102%. The remaining activity at 3.75 µM in assay [2] (Well no.=1551) came to 102%.
`NC(=O)N1CCC(CC(=O)N2CCC([C@H]3c4ncc(Br)cc4CCc4cc(Cl)cc(Br)c43)CC2)CC1` [Lonafarnib (SCH66336)]: the remaining activity at 1.25 µM in assay [1] (Well no.=4781) was found to be 105%. Moreover, the remaining activity at 3.75 µM in assay [2] (Well no.=4781) was determined as 101%.
Take `O=C(O)c1nn(Cc2ccc(Cl)cc2Cl)c2ccccc12` [Lonidamine]: the remaining activity at 1.25 µM in assay [1] (Well no.=1121) amounted to 92.8%. Further, in assay [2] (Well no.=1121), the remaining activity at 3.75 µM stood at 97%.
For the compound `CN(C)C(=O)C(CCN1CCC(O)(c2ccc(Cl)cc2)CC1)(c1ccccc1)c1ccccc1` [Loperamide (hydrochloride)], in assay [1] (Well no.=7427), the remaining activity at 1.25 µM worked out at 97.7%. The remaining activity at 3.75 µM in assay [2] (Well no.=7427) came out at 101%.
With `CN(C)C(=O)C(CCN1CCC(O)(c2ccc(Cl)cc2)CC1)(c1ccccc1)c1ccccc1` [Loperamide hydrochloride], the remaining activity at 1.25 µM in assay [1] (Well no.=1073) is 94.7%. Also, in assay [2] (Well no.=1073), the remaining activity at 3.75 µM worked out at 98.4%.
As for `CN(C)C(=O)C(CCN1CCC(O)(c2ccc(Cl)cc2)CC1)(c1ccccc1)c1ccccc1` [Loperamide.HCl], in assay [1] (Well no.=1597), the remaining activity at 1.25 µM was 104%. Also, in assay [2] (Well no.=1597), the remaining activity at 3.75 µM was found to be 104%.
Regarding `Cc1cccc(C)c1OCC(=O)N[C@@H](Cc1ccccc1)[C@@H](O)C[C@H](Cc1ccccc1)NC(=O)[C@H](C(C)C)N1CCCNC1=O` [Lopinavir], in assay [1] (Well no.=9076), the remaining activity at 1.25 µM worked out at 83.9%. Moreover, the remaining activity at 3.75 µM in assay [2] (Well no.=9076) is 84.3%.
Turning to `CCOC(=O)N1CCC(=C2c3ccc(Cl)cc3CCc3cccnc32)CC1` [Loratadine], the results for the remaining activity at 1.25 µM in assay [1] (Well no.=933), in assay [1] (Well no.=2274) and in assay [1] (Well no.=7337) were 96.2%, 89.1% and 98.6%, respectively. The remaining activity at 3.75 µM in assay [2] (Well no.=933) was 98.6%; in assay [2] (Well no.=2274), 89.3%; in assay [2] (Well no.=7337) it was 102%.
Take `C[C@H]1CNCCc2ccc(Cl)cc21` [Lorcaserin (Hydrochloride)]: the remaining activity at 1.25 µM in assay [1] (Well no.=6954) came to 99.1%. Besides, the remaining activity at 3.75 µM in assay [2] (Well no.=6954) was found to be 93.7%.
Regarding `C[C@H]1CNCCc2ccc(Cl)cc21` [Lorcaserin HCl], the remaining activity at 1.25 µM in assay [1] (Well no.=4742) was 102%. In assay [2] (Well no.=4742), the remaining activity at 3.75 µM came to 102%.
Consider `CCCCCN(CCCCC)C(=O)C(CCC(=O)O)NC(=O)c1ccc(Cl)c(Cl)c1` (centres unmarked) [Lorglumide sodium], for which the remaining activity at 1.25 µM in assay [1] (Well no.=820) worked out at 102%. Further, the remaining activity at 3.75 µM in assay [2] (Well no.=820) was 99.3%.
Regarding `CCCCCN(CCCCC)C(=O)C(CCC(=O)O)NC(=O)c1ccc(Cl)c(Cl)c1` (centres unmarked) [Lorglumide], the remaining activity at 1.25 µM in assay [1] (Well no.=2276) stood at 96.2%. The remaining activity at 3.75 µM in assay [2] (Well no.=2276) is 98.3%.
With `CCCCc1nc(Cl)c(CO)n1Cc1ccc(-c2ccccc2-c2nnn[nH]2)cc1` [Losartan (potassium)], the remaining activity at 1.25 µM in assay [1] (Well no.=8239) is 101%. For the same compound, in assay [2] (Well no.=8239), the remaining activity at 3.75 µM stood at 104%.
In the case of `CCCCc1nc(Cl)c(CO)n1Cc1ccc(-c2ccccc2-c2nnn[nH]2)cc1` [Losartan potassium], in assay [1] (Well no.=2278), the remaining activity at 1.25 µM stood at 94.3%. In assay [2] (Well no.=2278), the remaining activity at 3.75 µM was 95.8%.
As to `CCOC(=O)O[C@]1(C(=O)OCCl)CC[C@H]2[C@@H]3CCC4=CC(=O)C=C[C@]4(C)[C@H]3[C@@H](O)C[C@@]21C` [Loteprednol Etabonate], the remaining activity at 1.25 µM was determined as 98% in assay [1] (Well no.=4618) and 99.9% in assay [1] (Well no.=6459). For the same compound, the remaining activity at 3.75 µM in assay [2] (Well no.=4618) stood at 103%; in assay [2] (Well no.=6459), 97.6%.
For `CN1CCN(C2=Nc3ccccc3Oc3ccc(Cl)cc32)CC1` [Loxapine (succinate)], the remaining activity at 1.25 µM in assay [1] (Well no.=6172) amounted to 93.4%. Also, in assay [2] (Well no.=6172), the remaining activity at 3.75 µM was determined as 87.5%.
As for `CN1CCN(C2=Nc3ccccc3Oc3ccc(Cl)cc32)CC1` [Loxapine succinate], the remaining activity at 1.25 µM in assay [1] (Well no.=1125) was determined as 93.3%. In assay [2] (Well no.=1125), the remaining activity at 3.75 µM amounted to 89.7%.
`CN1CCN(C2=Nc3ccccc3Oc3ccc(Cl)cc32)CC1` [Loxapine]: the remaining activity at 1.25 µM in assay [1] (Well no.=6371) worked out at 99.7%. For the same compound, the remaining activity at 3.75 µM in assay [2] (Well no.=6371) was found to be 102%.
As to `CCCCCN(CCCOC)C(=O)C(CCC(=O)O)NC(=O)c1ccc(Cl)c(Cl)c1` (centres unmarked) [Loxiglumide], the remaining activity at 1.25 µM in assay [1] (Well no.=8483) turned out to be 94.1%. In addition, the remaining activity at 3.75 µM in assay [2] (Well no.=8483) was 95%.
As to `NC(=O)[C@@H]1CCCC[C@@H]1C(=O)Nc1ccc(Cl)c(Cl)c1` [Lu AF21934], in assay [1] (Well no.=8529), the remaining activity at 1.25 µM amounted to 104%. Further, the remaining activity at 3.75 µM in assay [2] (Well no.=8529) was 104%.
In the case of `CCCCN(CCCC)CC(O)c1cc(Cl)cc2c1-c1ccc(Cl)cc1/C2=C/c1ccc(Cl)cc1` (centres unmarked) [Lumefantrine], the remaining activity at 1.25 µM in assay [1] (Well no.=5499) was found to be 102%. Also, the remaining activity at 3.75 µM in assay [2] (Well no.=5499) is 108%.
Regarding `OC[C@@H]1CCCN2CCCC[C@H]12` [Lupinine], the remaining activity at 1.25 µM in assay [1] (Well no.=3609) came to 104%. Besides, in assay [2] (Well no.=3609), the remaining activity at 3.75 µM is 107%.
For the compound `O=C1[C@@H]2[C@H]3CC[C@H](C3)[C@@H]2C(=O)N1C[C@@H]1CCCC[C@H]1CN1CCN(c2nsc3ccccc23)CC1` [Lurasidone HCl], in assay [1] (Well no.=4891), the remaining activity at 1.25 µM was determined as 99.3%. Besides, the remaining activity at 3.75 µM in assay [2] (Well no.=4891) was 98%.
In the case of `O=c1cc(-c2ccc(O)c(O[C@@H]3O[C@H](CO)[C@@H](O)[C@H](O)[C@H]3O)c2)oc2cc(O[C@@H]3O[C@H](CO)[C@@H](O)[C@H](O)[C@H]3O)cc(O)c12` [Luteolin-3',7-diglucoside], the remaining activity at 1.25 µM in assay [1] (Well no.=3309) was found to be 97.1%. Besides, the remaining activity at 3.75 µM in assay [2] (Well no.=3309) came out at 95.6%.
For `O=c1cc(-c2ccc(O)c(O)c2)oc2cc(O)cc(O)c12` [Luteolin], the remaining activity at 1.25 µM in assay [1] (Well no.=837) turned out to be 96.9%; in assay [1] (Well no.=3318), 97.2%. Besides, the remaining activity at 3.75 µM in assay [2] (Well no.=837) came out at 102%; in assay [2] (Well no.=3318) it was 98.3%.
As for `CC(=O)NCCc1c(Cc2ccccc2)[nH]c2ccccc12` [Luzindole], the remaining activity at 1.25 µM in assay [1] (Well no.=5524) stood at 92.5%. In addition, the remaining activity at 3.75 µM in assay [2] (Well no.=5524) came out at 96.8%.
Consider `O[C@H]1[C@H]2c3cc4c(cc3CN3CCC(=C[C@@H]1O)[C@H]23)OCO4` [Lycorine], for which the remaining activity at 1.25 µM in assay [1] (Well no.=3379) worked out at 99.9%. Besides, the remaining activity at 3.75 µM in assay [2] (Well no.=3379) worked out at 99.5%.
For the compound `CN1C[C@H](CO)C=C2c3cccc4[nH]cc(c34)C[C@H]21` [Lysergol], the remaining activity at 1.25 µM in assay [1] (Well no.=3382) worked out at 96.8%. The remaining activity at 3.75 µM in assay [2] (Well no.=3382) turned out to be 93.3%.
Take `CCCCCCCC/C=C\CCCCCCCC(=O)OC[C@@H](O)COP(=O)(O)O` [Lysophosphatidic acid]: the remaining activity at 1.25 µM in assay [1] (Well no.=4497) was found to be 97.9%. Also, in assay [2] (Well no.=4497), the remaining activity at 3.75 µM was determined as 105%.
